For test [1], the target named is T1, acyl-CoA synthetase long-chain family member 3 (ACSL3) (Homo sapiens, UniProt O95573). Description: LC-MS of OA-CoA formed by recombinant ACSL3. In kind it is biochemical.
Test [2] has as its target T1, acyl-CoA synthetase long-chain family member 3 (ACSL3). Description: microscale thermophoresis. In kind it is binding. (Microscale thermophoresis detects binding through changes in fluorescence in a small temperature gradient.)
For test [3] the target is unchanged. The experiment in a line: microscale thermophoresis. In kind it is binding. This is another data set of the same source.
Test [4] shares this target. Description: microscale thermophoresis. In kind it is binding. The source holds these as a separate data set.

For orientation: Kd means a measure of binding affinity in units of concentration. The low end stands for higher affinity, the high end for lower affinity.

Read-outs that look alike come from different tables or passages of the source.

T1 sequence (O95573 whole entry): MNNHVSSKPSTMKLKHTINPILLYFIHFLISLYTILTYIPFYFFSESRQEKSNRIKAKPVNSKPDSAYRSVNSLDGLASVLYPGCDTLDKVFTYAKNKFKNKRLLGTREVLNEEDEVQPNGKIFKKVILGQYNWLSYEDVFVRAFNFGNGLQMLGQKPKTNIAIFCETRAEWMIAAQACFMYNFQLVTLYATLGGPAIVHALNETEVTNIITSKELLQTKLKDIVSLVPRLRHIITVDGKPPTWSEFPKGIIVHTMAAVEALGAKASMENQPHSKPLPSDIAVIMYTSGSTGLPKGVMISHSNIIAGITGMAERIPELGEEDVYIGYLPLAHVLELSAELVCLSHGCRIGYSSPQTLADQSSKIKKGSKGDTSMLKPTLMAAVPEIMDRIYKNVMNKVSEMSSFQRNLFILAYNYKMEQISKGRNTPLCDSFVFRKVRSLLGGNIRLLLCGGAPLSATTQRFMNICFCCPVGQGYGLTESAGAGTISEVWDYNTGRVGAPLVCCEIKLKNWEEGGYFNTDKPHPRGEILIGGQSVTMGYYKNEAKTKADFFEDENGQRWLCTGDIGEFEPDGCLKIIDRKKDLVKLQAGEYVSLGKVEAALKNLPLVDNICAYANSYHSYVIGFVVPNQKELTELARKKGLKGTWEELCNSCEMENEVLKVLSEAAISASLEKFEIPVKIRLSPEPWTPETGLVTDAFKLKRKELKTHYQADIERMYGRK

As to `CCCCCCCC/C=C\CCCCCCCC(=O)O` [OA, oleic acid], in test [1], the “LC-MS of OA-CoA formed by recombinant ACSL3” value is recorded as “VA analogues promoted acylation reaction with OA as substrate in the presence of ACSL3”.

In turn, `CC1=C(/C=C/C(C)=C/C=C/C(C)=C/C(=O)O)C(C)(C)CCC1` [ATRA, all-trans retinoic acid] showed an equilibrium dissociation constant (Kd) in test [2] of 12.8 µM.

Take `CC1=C(/C=C/C(C)=C/C=C/C(C)=C/CO)C(C)(C)CCC1` [VA, vitamin A]: the Kd in test [3] is 1.85 µM.

In test [4], `CNC(=O)/C=C(C)/C=C/C=C(C)/C=C/C1=C(C)CCCC1(C)C` [D3, (2E,4E,6E,8E)-N,3,7-trimethyl-9-(2,6,6-trimethylcyclohex-1-en-1-yl)nona-2,4,6,8-tetraenamide] returned a Kd of 1.28 µM.

These data come from article PMC13031062 (Acta Pharmaceutica Sinica. B, 2025).
